In patent US10093660B2, “Sulfoximine substituted quinazolines for pharmaceutical compositions” (EVOTEC INTERNATIONAL GMBH, priority 2013, dated 2018) one finds IC50 and inhibition data, which are given here for 36 compounds.

pIC50: −log10 of the molar value.

In one test the target is MNK2a (Homo sapiens (Human), UniProt Q9HBH9). Description: MNK2a in vitro kinase assay (Assay 2), ADP-Glo. The test is classed as biochemical. The note with it: assay 2; read-out: MNK2 IC50. An excerpt: B. MNK2a In Vitro Kinase Assay (Assay 2)
Chain of MNK2a (Q9HBH9 whole entry): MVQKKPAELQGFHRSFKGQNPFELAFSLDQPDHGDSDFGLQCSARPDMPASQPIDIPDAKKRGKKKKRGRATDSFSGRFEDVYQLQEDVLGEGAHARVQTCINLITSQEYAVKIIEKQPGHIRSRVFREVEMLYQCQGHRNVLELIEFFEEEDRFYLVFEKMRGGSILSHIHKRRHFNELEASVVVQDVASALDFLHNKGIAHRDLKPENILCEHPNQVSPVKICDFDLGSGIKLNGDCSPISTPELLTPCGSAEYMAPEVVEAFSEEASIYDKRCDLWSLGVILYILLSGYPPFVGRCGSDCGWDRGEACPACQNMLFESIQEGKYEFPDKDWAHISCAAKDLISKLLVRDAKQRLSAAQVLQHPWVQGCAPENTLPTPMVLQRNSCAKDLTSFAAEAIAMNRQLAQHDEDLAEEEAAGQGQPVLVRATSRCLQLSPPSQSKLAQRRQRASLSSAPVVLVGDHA
Regarding `CS(C)(=O)=Nc1cc(Br)c2c(Nc3ccc(F)cc3O[C@H]3COC[C@@H]3O)ncnc2c1` [Example 1.18], the pIC50 was 8.70.
With `CS(C)(=O)=Nc1cc(Cl)c2c(Nc3ccc(Cl)nc3O[C@H]3COC[C@@H]3O)ncnc2c1` [Example 1.19], the pIC50 was 8.40.
On the same count and under the same terms, the same measure for `O=S1(=Nc2cc(F)c3c(Nc4ccc(Cl)nc4O[C@H]4COC[C@@H]4O)ncnc3c2)CCCC1` [Example 1.20]: 8.70; for `CS(C)(=O)=Nc1cc(F)c2c(Nc3ccc(Cl)nc3O[C@H]3COC[C@@H]3O)ncnc2c1` [Example 1.21]: 8.15.
Same read-out and setting: the figure for `O=S1(=Nc2cc(Cl)c3c(Nc4ccc(F)cc4O[C@@H]4COC[C@H]4O)ncnc3c2)CCC1` [Example 1.22] is 9.00.
For the compound `Cc1cc(N=S(C)(C)=O)cc2ncnc(Nc3ccc(Cl)cc3O[C@H]3COC[C@@H]3O)c12` [Example 1.23], the pIC50 was 8.30.
`O=S1(=Nc2cc(F)c3c(Nc4ccc(Cl)nc4O[C@H]4COC[C@@H]4O)ncnc3c2)CCC1` [Example 1.24]: the pIC50 is 8.52.
On to `O=S1(=Nc2cc(Cl)c3c(Nc4ccc(F)cc4O[C@@H]4COC[C@H]4O)ncnc3c2)CCCC1` [Example 1.25], for which the negative logarithm of the IC50 (pIC50) is 8.70.
For `CS(C)(=O)=Nc1cc(Cl)c2c(Nc3ccc(F)cc3O[C@@H]3COC[C@H]3O)ncnc2c1` [Example 1.26], the negative logarithm of the IC50 (pIC50) was 8.52.
Still for that read-out and setting: the figure for `Cc1cc(N=S2(=O)CCCC2)cc2ncnc(Nc3ccc(Cl)cc3O[C@H]3COC[C@@H]3O)c12` [Example 1.27] is 8.52; for `O=S1(=Nc2cc(C(F)(F)F)c3c(Nc4ccc(F)cc4O[C@H]4COC[C@@H]4O)ncnc3c2)CCCC1` [Example 1.28] it is 8.40.
In the case of `Cc1cc(N=S2(=O)CCC2)cc2ncnc(Nc3ccc(Cl)cc3O[C@H]3COC[C@@H]3O)c12` [Example 1.29], the negative logarithm of the IC50 (pIC50) was 8.70.
For the compound `Cc1cc(N=S2(=O)CCC2)cc2ncnc(Nc3ccc(Cl)cc3O[C@@H]3COC[C@H]3O)c12` [Example 1.30], the pIC50 is 8.52.
`Cc1cc(N=S(C)(C)=O)cc2ncnc(Nc3ccc(Cl)cc3O[C@@H]3COC[C@H]3O)c12` [Example 1.31]: the pIC50 was 8.22.
As for `Cc1cc(N=S2(=O)CCCC2)cc2ncnc(Nc3ccc(Cl)cc3O[C@@H]3COC[C@H]3O)c12` [Example 1.32], the pIC50 is 8.40.
In the case of `Cc1c(F)c(N=S(C)(C)=O)cc2ncnc(Nc3ccc(F)cc3O[C@H]3COC[C@@H]3O)c12` [Example 1.33], the pIC50 was 8.10.
Still for that read-out and setting: the figure for `Cc1cc(N=S2(=O)CCCC2)cc2ncnc(Nc3ccc(F)cc3O[C@@H]3CN(C)C[C@H]3O)c12` [Example 2.5] is 7.77; for `Cc1cc(N=S(C)(C)=O)cc2ncnc(Nc3ccc(F)cc3O[C@@H]3CN(C)C[C@H]3O)c12` [Example 2.6] it is 7.04.
As to `Cc1cc(N=S(C)(C)=O)cc2ncnc(Nc3ccc(F)cc3O[C@@H]3CN(S(C)(=O)=O)C[C@H]3O)c12` [Example 2.11], the negative-log IC50 (pIC50) is 7.85.
Turning to `Cc1cc(N=S2(=O)CCCC2)cc2ncnc(Nc3ccc(F)cc3O[C@@H]3CN(S(C)(=O)=O)C[C@H]3O)c12` [Example 2.12], the pIC50 was 8.52.
As to `CC(=O)N1C[C@@H](O)[C@H](Oc2cc(F)ccc2Nc2ncnc3cc(N=S4(=O)CCCC4)cc(C)c23)C1` [Example 2.13], the pIC50 is 7.80.
Same read-out and setting: the figure for `CO[C@@H]1CN(C(=O)OCc2ccccc2)C[C@H]1Oc1cc(F)ccc1Nc1ncnc2cc(N=S(C)(C)=O)cc(C)c12` [Example 2.14] is 6.97; for `CO[C@@H]1CN(C(=O)OCc2ccccc2)C[C@H]1Oc1cc(F)ccc1Nc1ncnc2cc(N=S3(=O)CCCC3)cc(C)c12` [Example 2.15] it is 7.11.
Still for that read-out and setting: the same measure for `CO[C@@H]1CN(C(=O)OCc2ccccc2)C[C@H]1Oc1ncccc1Nc1ncnc2cc(N=S3(=O)CCCC3)cc(C)c12` [Example 2.16]: 7.09; for `CO[C@@H]1CN(C(=O)OCc2ccccc2)C[C@H]1Oc1ncccc1Nc1ncnc2cc(N=S(C)(C)=O)cc(C)c12` [Example 2.17]: 7.68; for `Cc1cc(N=S2(=O)CCCC2)cc2ncnc(Nc3cccnc3O[C@@H]3CN(C)C[C@H]3O)c12` [Example 2.18]: 7.31.
Turning to `Cc1cc(N=S(C)(C)=O)cc2ncnc(Nc3cccnc3O[C@@H]3CN(C)C[C@H]3O)c12` [Example 2.19], the pIC50 is 6.88.
With `Cc1cc(N=S(C)(C)=O)cc2ncnc(Nc3cccnc3O[C@@H]3CN(S(C)(=O)=O)C[C@H]3O)c12` [Example 2.20], the pIC50 is 7.57.
On to `CC(=O)N1C[C@@H](O)[C@H](Oc2ncccc2Nc2ncnc3cc(N=S(C)(C)=O)cc(C)c23)C1` [Example 2.21], for which the pIC50 was 6.75.
Same read-out and setting: the same measure for `Cc1cc(N=S2(=O)CCCC2)cc2ncnc(Nc3cccnc3O[C@@H]3CN(S(C)(=O)=O)C[C@H]3O)c12` [Example 2.22]: 8.15; for `CC(=O)N1C[C@@H](O)[C@H](Oc2ncccc2Nc2ncnc3cc(N=S4(=O)CCCC4)cc(C)c23)C1` [Example 2.23]: 7.64; for `Cc1cc(N=S(C)(C)=O)cc2ncnc(Nc3cccnc3O[C@H]3COC[C@@H]3O)c12` [Example 2.28]: 7.96.
On the same count and under the same terms, the figure for `Cc1cc(N=S2(=O)CCCC2)cc2ncnc(Nc3ccc(F)cc3O[C@H]3COC[C@@H]3O)c12` [Example 2.29] is 8.70; for `CCS(C)(=O)=Nc1cc(C)c2c(Nc3ccc(F)cc3O[C@H]3COC[C@@H]3O)ncnc2c1` (stereo partly shown) [Example 2.37] it is 8.40.
Take `Cc1cc(N=S2(=O)CCCCC2)cc2ncnc(Nc3ccc(F)cc3O[C@H]3COC[C@@H]3O)c12` [Example 2.38]: the pIC50 is 8.52.
The same measure, in the same setting: the figure for `Cc1cc(N=S(C)(C)=O)cc2ncnc(Nc3ccc(Cl)nc3O[C@H]3COC[C@@H]3O)c12` [Example 2.40] is 8.22.

For the next test, the target named is MNK1a (Homo sapiens (Human), UniProt Q9BUB5). The test is described as follows: MNK1 in vitro kinase assay (Assay 3), Z'-LYTE.
Chain of MNK1a (Q9BUB5 other isoform, or with tags, fused parts or gaps): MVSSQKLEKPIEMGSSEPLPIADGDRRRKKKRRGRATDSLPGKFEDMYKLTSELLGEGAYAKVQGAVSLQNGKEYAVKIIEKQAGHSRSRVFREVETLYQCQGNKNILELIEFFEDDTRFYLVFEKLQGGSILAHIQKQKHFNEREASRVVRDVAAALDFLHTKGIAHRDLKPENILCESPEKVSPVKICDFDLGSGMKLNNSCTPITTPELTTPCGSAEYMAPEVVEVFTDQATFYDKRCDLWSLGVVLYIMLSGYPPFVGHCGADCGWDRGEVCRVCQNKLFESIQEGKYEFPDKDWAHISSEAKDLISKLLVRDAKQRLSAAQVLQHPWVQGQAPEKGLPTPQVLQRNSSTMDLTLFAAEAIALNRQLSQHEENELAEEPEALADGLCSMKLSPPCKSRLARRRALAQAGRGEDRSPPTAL
Conditions: not given
The class given is biochemical.
In the case of `Cc1cc(N=S2(=O)CCCC2)cc2ncnc(Nc3ccc(Cl)cc3O[C@H]3COC[C@@H]3O)c12` [Example 1.27], the negative logarithm of the IC50 (pIC50) is 7.48.
As for `Cc1cc(N=S2(=O)CCCC2)cc2ncnc(Nc3ccc(F)cc3O[C@@H]3CN(S(C)(=O)=O)C[C@H]3O)c12` [Example 2.12], the negative logarithm of the IC50 (pIC50) is 7.03.
On to `Cc1cc(N=S2(=O)CCCC2)cc2ncnc(Nc3cccnc3O[C@@H]3CN(C)C[C@H]3O)c12` [Example 2.18], for which the pIC50 was 6.44.
Consider `Cc1cc(N=S2(=O)CCCC2)cc2ncnc(Nc3ccc(F)cc3O[C@H]3COC[C@@H]3O)c12` [Example 2.29], for which the pIC50 was 7.40.

The test is the same for the next values; noted with them: compound concentration of 1 μM, read-out: MNK1 % INH.
In the case of `CS(C)(=O)=Nc1cc(Br)c2c(Nc3ccc(F)cc3O[C@H]3COC[C@@H]3O)ncnc2c1` [Example 1.18], the inhibition at 1 µM was found to be 97%.
The same measure, in the same setting: the same measure for `CS(C)(=O)=Nc1cc(Cl)c2c(Nc3ccc(Cl)nc3O[C@H]3COC[C@@H]3O)ncnc2c1` [Example 1.19]: 99%; for `O=S1(=Nc2cc(F)c3c(Nc4ccc(Cl)nc4O[C@H]4COC[C@@H]4O)ncnc3c2)CCCC1` [Example 1.20]: 97%; for `CS(C)(=O)=Nc1cc(F)c2c(Nc3ccc(Cl)nc3O[C@H]3COC[C@@H]3O)ncnc2c1` [Example 1.21]: 93%.
On to `O=S1(=Nc2cc(Cl)c3c(Nc4ccc(F)cc4O[C@@H]4COC[C@H]4O)ncnc3c2)CCC1` [Example 1.22], for which the inhibition at 1 µM is 92%.
Consider `Cc1cc(N=S(C)(C)=O)cc2ncnc(Nc3ccc(Cl)cc3O[C@H]3COC[C@@H]3O)c12` [Example 1.23], for which the inhibition at 1 µM worked out at 99%.
With `O=S1(=Nc2cc(F)c3c(Nc4ccc(Cl)nc4O[C@H]4COC[C@@H]4O)ncnc3c2)CCC1` [Example 1.24], the inhibition at 1 µM stood at 91%.
For `O=S1(=Nc2cc(Cl)c3c(Nc4ccc(F)cc4O[C@@H]4COC[C@H]4O)ncnc3c2)CCCC1` [Example 1.25], the inhibition at 1 µM worked out at 97%.
On to `CS(C)(=O)=Nc1cc(Cl)c2c(Nc3ccc(F)cc3O[C@@H]3COC[C@H]3O)ncnc2c1` [Example 1.26], for which the inhibition at 1 µM came out at 99%.
Take `O=S1(=Nc2cc(C(F)(F)F)c3c(Nc4ccc(F)cc4O[C@H]4COC[C@@H]4O)ncnc3c2)CCCC1` [Example 1.28]: the inhibition at 1 µM was 96%.
For `Cc1cc(N=S2(=O)CCC2)cc2ncnc(Nc3ccc(Cl)cc3O[C@H]3COC[C@@H]3O)c12` [Example 1.29], the inhibition at 1 µM came out at 100%.
Turning to `Cc1cc(N=S2(=O)CCC2)cc2ncnc(Nc3ccc(Cl)cc3O[C@@H]3COC[C@H]3O)c12` [Example 1.30], the inhibition at 1 µM was 93%.
The same measure, in the same setting: the same measure for `Cc1cc(N=S(C)(C)=O)cc2ncnc(Nc3ccc(Cl)cc3O[C@@H]3COC[C@H]3O)c12` [Example 1.31]: 91%.
For `Cc1cc(N=S2(=O)CCCC2)cc2ncnc(Nc3ccc(Cl)cc3O[C@@H]3COC[C@H]3O)c12` [Example 1.32], the inhibition at 1 µM is 94%.
The same measure, in the same setting: the figure for `Cc1c(F)c(N=S(C)(C)=O)cc2ncnc(Nc3ccc(F)cc3O[C@H]3COC[C@@H]3O)c12` [Example 1.33] is 96%.
Turning to `Cc1cc(N=S2(=O)CCCC2)cc2ncnc(Nc3ccc(F)cc3O[C@@H]3CN(C)C[C@H]3O)c12` [Example 2.5], the inhibition at 1 µM amounted to 85%.
In the case of `Cc1cc(N=S(C)(C)=O)cc2ncnc(Nc3ccc(F)cc3O[C@@H]3CN(C)C[C@H]3O)c12` [Example 2.6], the inhibition at 1 µM amounted to 63%.
As to `Cc1cc(N=S(C)(C)=O)cc2ncnc(Nc3ccc(F)cc3O[C@@H]3CN(S(C)(=O)=O)C[C@H]3O)c12` [Example 2.11], the inhibition at 1 µM is 79%.
Still for that read-out and setting: the figure for `CC(=O)N1C[C@@H](O)[C@H](Oc2cc(F)ccc2Nc2ncnc3cc(N=S4(=O)CCCC4)cc(C)c23)C1` [Example 2.13] is 90%; for `CO[C@@H]1CN(C(=O)OCc2ccccc2)C[C@H]1Oc1cc(F)ccc1Nc1ncnc2cc(N=S(C)(C)=O)cc(C)c12` [Example 2.14] it is 19%; for `CO[C@@H]1CN(C(=O)OCc2ccccc2)C[C@H]1Oc1cc(F)ccc1Nc1ncnc2cc(N=S3(=O)CCCC3)cc(C)c12` [Example 2.15] it is 31%.
For the compound `CO[C@@H]1CN(C(=O)OCc2ccccc2)C[C@H]1Oc1ncccc1Nc1ncnc2cc(N=S3(=O)CCCC3)cc(C)c12` [Example 2.16], the inhibition at 1 µM is 55%.
With `CO[C@@H]1CN(C(=O)OCc2ccccc2)C[C@H]1Oc1ncccc1Nc1ncnc2cc(N=S(C)(C)=O)cc(C)c12` [Example 2.17], the inhibition at 1 µM came to 18%.
For `Cc1cc(N=S(C)(C)=O)cc2ncnc(Nc3cccnc3O[C@@H]3CN(C)C[C@H]3O)c12` [Example 2.19], the inhibition at 1 µM came to 45%.
As to `Cc1cc(N=S(C)(C)=O)cc2ncnc(Nc3cccnc3O[C@@H]3CN(S(C)(=O)=O)C[C@H]3O)c12` [Example 2.20], the inhibition at 1 µM was 77%.
Consider `CC(=O)N1C[C@@H](O)[C@H](Oc2ncccc2Nc2ncnc3cc(N=S(C)(C)=O)cc(C)c23)C1` [Example 2.21], for which the inhibition at 1 µM was 57%.
The same measure, in the same setting: the same measure for `Cc1cc(N=S2(=O)CCCC2)cc2ncnc(Nc3cccnc3O[C@@H]3CN(S(C)(=O)=O)C[C@H]3O)c12` [Example 2.22]: 86%.
For `CC(=O)N1C[C@@H](O)[C@H](Oc2ncccc2Nc2ncnc3cc(N=S4(=O)CCCC4)cc(C)c23)C1` [Example 2.23], the inhibition at 1 µM turned out to be 75%.
The same measure, in the same setting: the figure for `Cc1cc(N=S(C)(C)=O)cc2ncnc(Nc3cccnc3O[C@H]3COC[C@@H]3O)c12` [Example 2.28] is 85%; for `Cc1cc(N=S2(=O)CCCC2)cc2ncnc(Nc3ccc(F)cc3O[C@H]3COC[C@@H]3O)c12` [Example 2.29] it is 104%; for `CCS(C)(=O)=Nc1cc(C)c2c(Nc3ccc(F)cc3O[C@H]3COC[C@@H]3O)ncnc2c1` (stereo partly shown) [Example 2.37] it is 93%.
On to `Cc1cc(N=S2(=O)CCCCC2)cc2ncnc(Nc3ccc(F)cc3O[C@H]3COC[C@@H]3O)c12` [Example 2.38], for which the inhibition at 1 µM stood at 96%.
The same measure, in the same setting: the same measure for `Cc1cc(N=S(C)(C)=O)cc2ncnc(Nc3ccc(Cl)nc3O[C@H]3COC[C@@H]3O)c12` [Example 2.40]: 96%.
